{"source": "patent EP4755396A1", "about": "“TREATMENT OF P53 GENE MUTATION OR DEFECT NEGATIVE CANCER AND TUMOR PATIENTS” (Ascentawits Pharmaceuticals, Ltd., priority 2023, dated 2025)", "key": {"[1]": {"system": "γH2AX protein in H460 cells", "experiment": "WB detection of DNA damage marker", "format": "cell-based", "settings": "0.1-1 nM AST-3424, 5 µM Nutlin-3, 24 hours (Figures 20-22)", "source_text": "In the first, the second and the third experiment of the effect of AST-3424 in combination with Nutlin-3 on Ser15-p53, Ser20-p53, Total p53, MDM2 and p21 proteins in H460 cells in example 5, the applicant also performed WB detection of γH2AX protein, with the results shown in Figures 20, 21 and 22."}, "H460 cells": {"system": "H460 cells", "experiment": "Cell proliferation experiment (3 days) with different administration sequences", "format": "cell-based", "settings": "after the addition of Nutlin-3, different administration sequences (Figure 2)", "protocol": "Further combination therapy experiments with different administration sequences of AST-3424 were carried out. Dosing regimens were set for the experiments.\nMonotherapy: Each well was added with AST-3424 alone, Nutlin-3 alone, 5 µL of each compound in different concentrations (400 times) and 5 µL of medium. The cells were treated (DMSO 0.25% and 0.50%).\nCombination therapy: Cells were treated with 5 µL each of AST-3424 and Nutlin-3 in different administration sequences: AST-3424 pre-treatment for 2 hours followed by co-treatment with Nutlin-3 for 6 hours; Nutlin-3 pre-treatment for 2 hours followed by co-treatment with AST-3424 for 6 hours; and co-treatment with AST-3424 and Nutlin-3 for 6 hours."}, "A549 cells": {"system": "A549 cells", "experiment": "Cell cycle G2/M arrest, PI staining flow cytometry", "format": "cell-based", "settings": "second experiment, 0.3-9 nM AST-3424, 5 µM Nutlin-3, AST-3424 pre-treatment 2 hours (Figure 6)", "protocol": "A second experiment was further conducted, in order to further study the effects of different concentrations of AST-3424 alone, Nutlin-3 alone and the two in combination and different administration sequences in the combination therapy on the cell cycle of H460/A549 cells (p53 wild-type, protein normal expression).\nThe remaining operations were similar to the above experiment, and the compound treatment conditions were as follows:\nFor A549 cell line, 1% DMSO, adding 5 µM Nutlin-3 for treatment for 22 hours, adding 0.3 nM AST-3424 for treatment for 24 hours, adding 1 nM AST-3424 for treatment for 24 hours, adding 9 nM AST-3424 for treatment for 24 hours, and adding 9 nM AST-3424 for treatment for 24 hours.\nFor A549 cell line, • Adding 0.3 nM AST-3424 for pre-treatment for 2 hours, and then adding 5 µM Nutlin-3 for co-treatment for 22 hours; • Adding 1 nM AST-3424 for pre-treatment for 2 hours, and then adding 5 µM Nutlin-3 for co-treatment for 22 hours; • Adding 3 nM AST-3424 for pre-treatment for 2 hours, and then adding 5 µM Nutlin-3 for co-treatment for 22 hours; • Adding 9 nM AST-3424 for pre-treatment for 2 hours, and then adding 5 µM Nutlin-3 for co-treatment for 22 hours."}, "HPAF-II cells": {"system": "HPAF-II cells", "experiment": "In vitro cell proliferation inhibition (96-well, CTG, 72 hours)", "format": "cell-based", "settings": "Homo sapiens, monotherapy, applicant's previous cancer cell proliferation inhibition test data"}, "[2]": {"system": "Total P53, MDM2, P21, AKR1C3 proteins in H460 cells", "experiment": "WB detection, presence and absence of Nutlin-3", "format": "cell-based, human", "settings": "wild-type H460, 5 µM Nutlin-3, 24h, compared with the H460 wild-type DMSO group (Figures 29, 30)", "description": "(§1) • 1) H460 and H460 P53 KO cell suspensions were added to a 24-well plate, with a cell density of 100000 /well and 995 µL of medium per well. • 2) The cells were cultured overnight in an incubator at 37°C, 5% CO2. • 3) Compound Treatment\n(§2) After 24 hours of cell plating, according to the protocol, each cell line experiment was grouped as: H460 WT untreated group, H460 P53 KO # 1 untreated group, H460 P53 KO # 7 untreated group, H460 P53 KO # 8 untreated group, H460 P53 KO # 12 untreated group, H460 WT 0.1% DMSO treated group, H460 WT 5 µM Nutlin-3 treated group, H460 P53 KO # 1 5 µM Nutlin-3 treated group, H460 P53 KO # 7 5 µM Nutlin-3 treated group, H460 P53 KO # 8 5 µM Nutlin-3 treated group, H460 P53 KO # 12 5 µM Nutlin-3 treated group. […]\n(§3) • 1) The cell plates were taken back, the medium supernatant was discarded, and the plates were gently rinsed with PBS. […] The cells were scraped off with a cell scraper, lysed on ice for 30 min, and centrifuged at 14000 rpm and 4°C for 10 min. • 2) Protein quantification was performed using the BCA method. […] Solutions A and B of the ECL luminescence solution (SuperSignal West Femto Maximum Sensitivity) were mixed and added to the membrane dried away from water. […]"}, "[3]": {"system": "Ser15-p53, Ser20-p53, Total p53, MDM2 and p21 proteins in H460 cells", "experiment": "WB detection of p53 protein pathway", "format": "cell-based", "settings": "0.1-1 nM AST-3424, 5 µM Nutlin-3, 24 hours, three experiments (Figures 11-13)", "description": "Overview of the experimental process: • 1) H460 cell suspension was added to a 24-well plate, with a cell density of 80000 /well and 995 µL of medium per well. • 2) The cells were cultured overnight in an incubator at 37°C, 5% CO2. • 3) Compound Treatment\nAfter 24 hours of cell plating, according to the protocol, each cell line experiment was grouped as: Monotherapy: After 24 hours of cell plating, each well was supplied with 5µL of test compounds at different concentrations: 0.5% DMSO, 0.1nM AST-3424 and 5 µM Nutlin-3, shaken gently to ensure even mixing, and then placed at 37°C, 5% CO2 in an incubator.\nCombination therapy: After 24 hours of cell plating, each well was supplied with 5µL of test compounds at different concentrations. The cells were pre-treated with 5µM Nutlin-3 for 2 hours and then were added with 0.1nM AST-3424, shaken gently to ensure even mixing, and then placed at 37°C, 5% CO2 in an incubator.\n4) Cell protein lysates were collected for WB analysis.\nCombination therapy group: • Adding 0.1 nM AST-3424 for pre-treatment for 2 hours, and then adding 5 µM Nutlin-3 for co-treatment for 22 hours; • Adding 0.3 nM AST-3424 for pre-treatment for 2 hours, and then adding 5 µM Nutlin-3 for co-treatment for 22 hours; • Adding 1 nM AST-3424 for pre-treatment for 2 hours, and then adding 5 µM Nutlin-3 for co-treatment for 22 hours."}, "[4]": {"system": "Total P53, MDM2, P21, AKR1C3 proteins in H460 P53 KO cells", "experiment": "WB detection, presence and absence of Nutlin-3", "format": "cell-based, human", "settings": "H460 P53 KO cells (#1, #7, #8, #12), 5 µM Nutlin-3, 24h, compared to H460 wild-type DMSO group (Figures 29, 30)", "description": "as §1, §2, §3"}}, "data": [{"smiles": "C[C@H](OP(=O)(N1CC1)N1CC1)c1ccc([N+](=O)[O-])c(Oc2cccc(C(=O)N(C)C)c2)c1", "note": "[AST-3424]", "values": [{"measurement": "γH2AX protein amount, a biomarker of DNA double-strand damage (WB)", "setting": "[1]", "value": "upregulate the amount of γH2AX protein"}, {"measurement": "proliferation inhibition rate of AST-3424", "setting": "H460 cells", "value": "significantly increased"}, {"measurement": "G2/M cell cycle arrest", "setting": "A549 cells", "value": "concentration-dependent G2/M cell cycle arrest"}]}, {"smiles": "O=[N+]([O-])c1ccc(C(OP(=O)(N2CC2)N2CC2)C(F)(F)F)cc1Oc1ccc(-c2ccc(F)cc2)c(F)c1", "note": "(stereo not shown) [AST]", "values": [{"measurement": "IC50", "setting": "HPAF-II cells", "value": 329, "unit": "nM"}]}, {"smiles": "COc1ccc(C2=NC(c3ccc(Cl)cc3)C(c3ccc(Cl)cc3)N2C(=O)N2CCNC(=O)C2)c(OC(C)C)c1", "note": "(racemic) [Nutlin-3]", "values": [{"measurement": "expressions of MDM2, P53, P21 and AKR1C3 proteins (WB)", "setting": "[2]", "value": "all upregulated"}, {"measurement": "phosphorylation of p53 (Ser15-p53 and Ser20-p53), protein expression of total-p53, MDM2 and p21 (WB)", "setting": "[3]", "value": "upregulated the expression levels of p53 and its downstream proteins p21 and MDM2"}, {"measurement": "expressions of MDM2, P53, P21 and AKR1C3 proteins (WB)", "setting": "[4]", "value": "not upregulated"}]}]}
